# Values quoted from earlier work, collected in patent publication US20200275650A1, “NOVEL POLYMER COATED CHLO[…]” (priority 2017, published 2020).
# Conditions: technical chlorothalonil; well documented
smiles,measurement,value
"N#Cc1c(Cl)c(Cl)c(Cl)c(C#N)c1Cl [technical chlorothalonil, chlorothalonil]",Median Lethal Concentration (acute inhalation toxicity),0.1 mg/L
